The test system of assay [1] is HeLa. As to the kind of experiment: Induction of apoptosis in Homo sapiens (human) HeLa cells assessed as rounded cells at 10 to 50 ug/ml after 24 hr by light microscopic analysis. It is filed as functional, cell-based.
The subject of assay [2] is HeLa. As to the kind of experiment: Induction of apoptosis in Homo sapiens (human) HeLa cells assessed as detachment from substratum at <40 ug/ml after 24 hr by light microscopic analysis. The class given is functional, cell-based.
For assay [3], the system named is HeLa. As to the kind of experiment: Induction of apoptosis in Homo sapiens (human) HeLa cells assessed as floating cells at 10 to 50 ug/ml after 24 hr by light microscopic analysis. It is filed as functional, cell-based.
Assay [4] relates to HeLa. As to the kind of experiment: Induction of apoptosis in Homo sapiens (human) HeLa cells assessed as rounded cells at 10 to 100 ug/ml after 48 hr by light microscopic analysis. It is filed as functional, cell-based.
Assay [5] has as its system HeLa. As to the kind of experiment: Cytotoxicity against Homo sapiens (human) HeLa cells assessed as cell death at 10 to 100 ug/ml after 48 hr by light microscopic analysis. It is filed as functional, cell-based.
For assay [6], the system named is HeLa. As to the kind of experiment: Induction of necrosis in Homo sapiens (human) HeLa cells assessed as increase in cytoplasmic vacuolization at >50 ug/ml after 24 hr by light microscopic analysis. The class given is functional, cell-based.
Assay [7] deals with HeLa. As to the kind of experiment: Induction of necrosis in Homo sapiens (human) HeLa cells assessed as increase in cytoplasmic volume at >50 ug/ml after 24 hr by light microscopic analysis. The class given is functional, cell-based.
Assay [8] relates to HeLa. As to the kind of experiment: Induction of apoptosis in Homo sapiens (human) HeLa cells assessed as membrane blebbing at <40 ug/ml after 24 hr by light microscopic analysis. It is filed as functional, cell-based.
Assay [9] concerns HeLa. As to the kind of experiment: Induction of necrosis in Homo sapiens (human) HeLa cells assessed as increase in nucleus volume at >50 ug/ml after 24 hr by light microscopic analysis. It is filed as functional, cell-based.
Assay [10] has as its system HeLa. As to the kind of experiment: Induction of necrosis in Homo sapiens (human) HeLa cells assessed as dissolution of cytoplasmic membrane at >50 ug/ml after 24 hr by light microscopic analysis. It is filed as functional, cell-based.
For assay [11], the system named is HeLa. As to the kind of experiment: Induction of apoptosis in Homo sapiens (human) HeLa cells assessed as fragmented nuclei at 10 to 100 ug/ml after 24 hr by acridine orange/ethidium bromide-based inverted fluorescence microscopic analysis. It is filed as functional, cell-based.
In assay [12] the test system is HeLa. As to the kind of experiment: Growth inhibition of Homo sapiens (human) HeLa cells at 10 to 30 ug/ml up to 3 days by MTT assay. The class given is functional. In general terms: Tetrazolium dyes change colour on reduction, which living cells bring about.
Assay [13] has as its system HeLa. As to the kind of experiment: Cytotoxicity against Homo sapiens (human) HeLa cells assessed as decrease in cell viability at 10 to 100 ug/ml after 24 hr by acridine orange/ethidium bromide-based inverted fluorescence microscopic analysis. It is filed as functional.
Assay [14] relates to HeLa. As to the kind of experiment: Cytotoxicity against Homo sapiens (human) HeLa cells up to 3 days by MTT assay. The class given is functional, cell-based. The following applies: for IC50: 72 h.
The test system of assay [15] is HeLa. As to the kind of experiment: Induction of necrosis in Homo sapiens (human) HeLa cells assessed as chromatin flocculation at >50 ug/ml after 24 hr by light microscopic analysis. It is filed as functional, cell-based.
Assay [16] concerns HeLa. As to the kind of experiment: Induction of apoptosis in Homo sapiens (human) HeLa cells assessed as loss of cell to cell contact at <40 ug/ml after 24 hr by light microscopic analysis. The class given is functional, cell-based.
Assay [17] relates to HeLa. As to the kind of experiment: Induction of apoptosis in Homo sapiens (human) HeLa cells assessed as apoptotic bodies at <40 ug/ml after 24 hr by light microscopic analysis. The class given is functional, cell-based.
Assay [18] deals with HeLa. As to the kind of experiment: Induction of necrosis in Homo sapiens (human) HeLa cells assessed as dissolution of nuclear membrane at >50 ug/ml after 24 hr by light microscopic analysis. It is filed as functional, cell-based.
Assay [19] concerns HeLa. As to the kind of experiment: Induction of apoptosis in Homo sapiens (human) HeLa cells assessed as apoptotic bodies at <55 ug/ml after 24 hr by light microscopic analysis. The class given is functional, cell-based.
Assay [20] relates to HeLa. As to the kind of experiment: Induction of apoptosis in Homo sapiens (human) HeLa cells assessed as loss of cell to cell contact at <55 ug/ml after 24 hr by light microscopic analysis. It is filed as functional, cell-based.
Assay [21] concerns HeLa. As to the kind of experiment: Induction of apoptosis in Homo sapiens (human) HeLa cells assessed as membrane blebbing at <55 ug/ml after 24 hr by light microscopic analysis. The class given is functional, cell-based.
Assay [22] has as its system HeLa. As to the kind of experiment: Induction of apoptosis in Homo sapiens (human) HeLa cells assessed as detachment from substratum at <55 ug/ml after 24 hr by light microscopic analysis. It is filed as functional, cell-based.

The values below come from ChEMBL document CHEMBL3046054, “Chemico-biological investigation of rhizome essential oil of Zingiber morannative to Northeast India” (Med Chem Res, 2013).

Broadly, the IC50 is the concentration at which inhibition is half-maximal.

In brackets after ≈: the same amount, converted by molar mass. Activity calls are given as the source filed them. The rule behind the calls is not given here.

Regarding `CC(C)=CCCC(C)=CC=O`, the outcome in the assay with HeLa [1], in the assay with HeLa [2], in the assay on HeLa [3], in the assay with HeLa [4], in the assay on HeLa [5] and in the assay on HeLa [6] was Active. For the same compound, the result in the assay with HeLa [7], in the assay with HeLa [8], in the assay with HeLa [9], with HeLa [10], in the assay with HeLa [11] and in the assay on HeLa [13] was Active. Further, the outcome with HeLa [15], in the assay with HeLa [16], in the assay on HeLa [17] and in the assay with HeLa [18] was Active. Moreover, the “growth inhibition (GI)” value in the assay on HeLa [12] is on record as 60%. Further, the Activity entry in the assay on HeLa [14] is “Dose-dependent effect”. The same compound displayed a concentration for half-maximal inhibition (IC50) in the assay with HeLa [14] of 39.6 mg/L (≈ 260 µM).

Turning to `C=C1C2CCC(C2)C1(C)C` (configuration not stated) [CAMPHENE], the outcome with HeLa [1], in the assay with HeLa [2], in the assay on HeLa [3], in the assay with HeLa [4], with HeLa [5] and in the assay on HeLa [6] was Active. The outcome with HeLa [7], in the assay on HeLa [8], with HeLa [9], with HeLa [10], in the assay with HeLa [11] and with HeLa [13] was Active. The result in the assay with HeLa [15], in the assay on HeLa [16], with HeLa [17] and with HeLa [18] was Active. Also, the “growth inhibition (GI)” value with HeLa [12] amounted to 60%. Also, the Activity result in the assay with HeLa [14] is “Dose-dependent effect”. The compound further came in with a half-maximal inhibitory concentration (IC50) in the assay with HeLa [14] of 38.5 mg/L (≈ 283 µM).

Turning to `C=CC(C)(O)CCC=C(C)C` (configuration not stated) [LINALOOL], the result in the assay on HeLa [19], in the assay on HeLa [20], in the assay with HeLa [1], with HeLa [3], in the assay with HeLa [4] and in the assay on HeLa [5] was Active. The result with HeLa [6], in the assay with HeLa [7], in the assay with HeLa [21], with HeLa [9], in the assay with HeLa [10] and in the assay with HeLa [11] was Active. Moreover, the result in the assay with HeLa [22], in the assay with HeLa [13], in the assay on HeLa [15] and with HeLa [18] was Active. Also, the “growth inhibition (GI)” value in the assay with HeLa [12] was found to be 60%. In addition, the Activity result in the assay on HeLa [14] is “Dose-dependent effect”. The compound further yielded a concentration for half-maximal inhibition (IC50) in the assay with HeLa [14] of 55.4 mg/L (≈ 359 µM).
